Where two headings read alike, the source gives them in different places.
Experiments:
plasma cholesterol = assay: Cholesterol lowering in hypercholesterolemic rats; format: in vivo; settings: for % Cholesterol Lowering / change in vivo at 0.5 mg/kg/day: delivered p.o. (0.5 mg/kg/d), percentage change from pre-dose cholesterol; for change in vivo at 0.5 mg/kg/day: Rattus norvegicus, po, read-out: % Cholesterol Lowering; for cholesterol lowering: 0.5 mg/kg/d orally
[1] = molecular target: T1, human thyroid hormone receptors TRα1 (Homo sapiens, UniProt P10827); assay: Receptor binding to TRα1 (gel filtration and scintillation proximity assay, labeled T3)
T1 construct: made in house; host or cells: Sf9 insect cells (baculovirus)
T1 sequence (P10827 1-410 isoform P10827-2): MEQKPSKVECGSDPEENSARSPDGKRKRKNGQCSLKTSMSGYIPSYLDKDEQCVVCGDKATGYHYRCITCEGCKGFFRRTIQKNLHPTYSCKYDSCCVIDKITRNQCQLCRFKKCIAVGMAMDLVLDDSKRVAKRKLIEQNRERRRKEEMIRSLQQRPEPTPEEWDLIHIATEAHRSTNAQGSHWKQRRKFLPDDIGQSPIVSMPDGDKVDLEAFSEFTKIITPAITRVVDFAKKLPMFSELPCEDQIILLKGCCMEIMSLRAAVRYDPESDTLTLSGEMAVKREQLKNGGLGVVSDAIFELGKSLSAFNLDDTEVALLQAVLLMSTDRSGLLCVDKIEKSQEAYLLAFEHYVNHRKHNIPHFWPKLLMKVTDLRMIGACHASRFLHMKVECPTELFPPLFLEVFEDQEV
T1 sequence (P19793 1-462 partner): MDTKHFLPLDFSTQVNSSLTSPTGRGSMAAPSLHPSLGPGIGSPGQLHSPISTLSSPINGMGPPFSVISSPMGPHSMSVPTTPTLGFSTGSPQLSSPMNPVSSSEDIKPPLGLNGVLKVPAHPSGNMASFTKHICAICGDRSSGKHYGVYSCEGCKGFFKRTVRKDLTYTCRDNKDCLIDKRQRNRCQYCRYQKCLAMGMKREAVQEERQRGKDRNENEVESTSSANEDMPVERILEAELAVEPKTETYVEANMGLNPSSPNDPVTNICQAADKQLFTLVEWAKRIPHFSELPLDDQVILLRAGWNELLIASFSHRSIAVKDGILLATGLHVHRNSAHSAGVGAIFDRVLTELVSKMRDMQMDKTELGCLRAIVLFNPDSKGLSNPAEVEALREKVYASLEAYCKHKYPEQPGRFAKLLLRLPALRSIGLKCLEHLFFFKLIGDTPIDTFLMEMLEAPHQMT
Method: (§1) Methods: Baculoviruses expressing TRα1, TRβ1 and RXRα were generated using cDNA and other reagents from Invitrogen (Carlsbad, Calif.). To produce TR/RXR heterodimer proteins, the sf9 insect cells were first grown to a density of 1-5×10^5 cells/mL. […] and RXRα baculovirus stocks were added to the cell culture with a ratio of 1 to 1 (multiplicity of infection=10). The cells were harvested three days after the infection.
(§2) Binding of compounds to either the TRα1 or TRβ1 were also performed by means of scintillation proximity assays (SPA). The SPA assay, a common method used for the quantitation of receptor-ligand equilibria, makes use of special beads coated with a scintillant and a capture molecule, copper, which binds to the histidine-tagged α or β receptor.

[2] = molecular target: T2, human thyroid hormone receptors TRβ1 (Homo sapiens, UniProt P10828); assay: Receptor binding to TRβ1 (gel filtration and scintillation proximity assay, labeled T3)
T2 construct: made in house; host or cells: Sf9 insect cells (baculovirus)
T2 sequence (P10828 1-461): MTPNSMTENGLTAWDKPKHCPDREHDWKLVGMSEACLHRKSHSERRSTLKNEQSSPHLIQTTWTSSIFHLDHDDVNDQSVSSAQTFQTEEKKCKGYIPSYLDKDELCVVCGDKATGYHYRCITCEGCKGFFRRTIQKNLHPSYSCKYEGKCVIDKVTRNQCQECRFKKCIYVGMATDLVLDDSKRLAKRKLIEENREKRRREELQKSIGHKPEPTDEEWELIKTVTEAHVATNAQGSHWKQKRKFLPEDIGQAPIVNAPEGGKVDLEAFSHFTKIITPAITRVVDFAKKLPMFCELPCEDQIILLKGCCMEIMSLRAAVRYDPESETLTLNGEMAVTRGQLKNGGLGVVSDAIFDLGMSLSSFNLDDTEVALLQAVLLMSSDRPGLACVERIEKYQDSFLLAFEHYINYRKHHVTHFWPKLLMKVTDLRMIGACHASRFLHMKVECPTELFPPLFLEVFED
T2 sequence (P19793 1-462 partner): T1 sequence (P19793 1-462 partner)
Method: as §1, §2

| SMILES | change in vivo at 0.5 mg/kg/day (plasma cholesterol) [%] | Ki ([1]; SPA data, read-out: Ki TRα) [nM] | Ki ([2]; SPA data, read-out: Ki TRβ) [nM] | other results |
| --- | --- | --- | --- | --- |
| CC(C)c1cc(Cc2c(Cl)cc(OC[P@@]3(=O)OCC[C@@H](c4cccc(Cl)c4)O3)cc2Cl)ccc1O (relative stereo) [Compound 13-11, Cis(S)-2-[(3,5-dichloro-4-(4′-hydroxy-3′-iso-propylbenzyl)phenoxy)methyl]-4-(3-chlorophenyl)-2-oxo-2λ^5-[1,3,2]-dioxaphosphonane] |  |  |  | % Cholesterol Lowering (plasma cholesterol): −24.8% |
| CCC(C)c1cc(Cc2c(C)cc(OCP(=O)(OCOC(=O)C(C)(C)C)OCOC(=O)C(C)(C)C)cc2C)ccc1O (centres unmarked) [Compound 12-4, Di-(pivaloyloxymethyl)[3,5-dimethyl-4-(4′-hydroxy-3′-sec-butylbenzyl)phenoxy]methylphosphonate] | -30.5 |  |  |  |
| CC(C)c1cc(Oc2c(Br)cc(CP(=O)(OCOC(=O)C(C)(C)C)OCOC(=O)C(C)(C)C)cc2Br)ccc1O [Compound 12-5, Di-(pivaloyloxymethyl)[3,5-dibromo-4-(4′-hydroxy-3′-iso-propylphenoxy)benzyl]phosphonate] | -32.5 |  |  | cholesterol lowering (plasma cholesterol; hypercholesterolemic rats): demonstrated a significant lowering of cholesterol |
| CC(C)c1cc(Oc2c(I)cc(OCP(=O)(OCOC(=O)C(C)(C)C)OCOC(=O)C(C)(C)C)cc2I)ccc1O [Compound 12-7, Di(pivaloyloxymethyl)[3,5-diiodo-4-(4′-hydroxy-3′-iso-propylphenoxy)phenoxy]methylphosphonate] |  |  |  | % Cholesterol Lowering (plasma cholesterol): −39.1% |
| CC(C)c1cc(Cc2c(Cl)cc(OCP(=O)(OCOC(=O)C(C)(C)C)OCOC(=O)C(C)(C)C)cc2Cl)ccc1O [Compound 12-8, Di(pivaloyloxymethyl)[3,5-dichloro-4-(4′-hydroxy-3′-iso-propylbenzyl)phenoxy]methylphosphonate] | -33.7 |  |  |  |
| CC(C)c1cc(Oc2c(Cl)c(F)nc(NCP(=O)(OCOC(=O)C(C)(C)C)OCOC(=O)C(C)(C)C)c2Cl)ccc1O [Compound 12-9] |  |  |  | efficacy in lowering cholesterol (plasma cholesterol; another experiment, hypercholesterolemic rats): not efficacious |
| CCC(C)c1cc(Cc2c(C)cc(OC[P@@]3(=O)OCC[C@@H](c4cccc(Cl)c4)O3)cc2C)ccc1O (stereo partly drawn) [Compound 13-8, Cis-(S)-2-[(3,5-dimethyl-4-(4′-hydroxy-3′-sec-butylbenzyl)phenoxy)methyl]-4-(3-chlorophenyl)-2-oxo-2λ^5-[1,3,2]-dioxaphosphonane] | -26.5 |  |  |  |
| CC(C)c1cc(Oc2c(Br)cc(C[P@@]3(=O)OCC[C@@H](c4cccc(Cl)c4)O3)cc2Br)ccc1O [Compound 13-9, Cis-(S)-2-[3,5-dibromo-4-(4′-hydroxy-3′-iso-propylphenoxy)benzyl]-4-(3-chlorophenyl)-2-oxo2λ^5-[1,3,2]-dioxaphosphonane] | -10.9 |  |  | cholesterol lowering (plasma cholesterol; hypercholesterolemic rats): failed to demonstrate cholesterol lowering |
| CC(C)c1cc(Oc2c(I)cc(OC[P@@]3(=O)OCC[C@@H](c4cccc(Cl)c4)O3)cc2I)ccc1O [Compound 13-10] | -25.8 |  |  |  |
| CCOC(=O)[C@H](C)NP(=O)(COc1cc(C)c(Cc2ccc(O)c(C(C)CC)c2)c(C)c1)N[C@@H](C)C(=O)OCC (stereo partly drawn) [Compound 15-4, di-N-(L-1-ethoxycarbonylethylamino)[3,5-dimethyl-4-(4′-hydroxy-3′-sec-butylbenzyl)phenoxy]methylphosphonamide] | -39.6 |  |  |  |
| CCOC(=O)[C@H](C)NP(=O)(Cc1cc(Br)c(Oc2ccc(O)c(C(C)C)c2)c(Br)c1)N[C@@H](C)C(=O)OCC [Compound 15-5, di-N-(L-1-ethoxycarbonylethylamino)[3,5-dibromo-4-(4′-hydroxy-3′-iso-propylphenoxy)benzyl]phosphonamide] | -29.9 |  |  | cholesterol lowering (plasma cholesterol; hypercholesterolemic rats): demonstrated a significant lowering of cholesterol |
| CCOC(=O)[C@H](C)NP(=O)(COc1cc(Cl)c(Cc2ccc(O)c(C(C)C)c2)c(Cl)c1)N[C@@H](C)C(=O)OCC [Compound 15-7] |  |  |  | % Cholesterol Lowering (plasma cholesterol): −29.1% |
| Cc1cc(OCP(=O)(O)O)cc(C)c1C(=O)c1ccc(O)c(C(C)C)c1 [Compound 25, [3,5-dimethyl-4-(3′-iso-propyl-4′-hydroxybenzoyl)phenoxy]methylphosphonic acid] |  |  |  | Ki [1]: > 2000 nM; Ki [2]: 363 nM |
| Cc1cc(OCCP(=O)(O)O)cc(C)c1Cc1ccc(O)c(C(C)C)c1 [Compound 26, 2-[3,5-dimethyl-4-(3′-iso-propyl-4′-hydroxybenzyl)phenoxy]ethylphosphonic acid] |  |  |  | Ki ([1]; read-out: Ki TRα): 594 nM; Ki ([2]; read-out: Ki TRβ): 87 nM |
| COc1ccc(Oc2c(C)cc(CCP(=O)(O)O)cc2C)cc1C(C)C [Compound 30, 2-[3,5-dimethyl-4-(3′-iso-propyl-4′-methoxyphenoxy)phenyl]ethylphosphonic acid] |  | > 2000 | > 2000 |  |
| Cc1cc(CC(=O)CP(=O)(O)O)cc(C)c1Oc1ccc(O)c(C(C)C)c1 [Compound 32, 3-[3,5-dimethyl-4-(4′-hydroxy-3′-iso-propylphenoxy)]phenyl-2-oxopropylphosphonic acid] |  | 284 | 96 |  |
| Cc1cc(OCP(=O)(O)O)cc(C)c1Cc1ccc(O)c(I)c1 [Compound 34, [3,5-dimethyl-4-(4′-hydroxy-3′-iodobenzyl)phenoxy]methylphosphonic acid] |  | 118 | 6.5 |  |
| Cc1cc(OCP(=O)(O)O)cc(C)c1Cc1ccc(O)c(C(=O)O)c1 [Compound 35, [3,5-dimethyl-4-(3′-carboxyl-4′-hydroxy-benzyl)phenoxy]methylphosphonic acid] |  | > 2000 | > 2000 |  |
| Cc1cc(OCP(=O)(O)O)cc(C)c1Cc1ccc(O)c(C(=O)NC(C)C)c1 [Compound 36, [3,5-dimethyl-4-(4′-hydroxy-3′-iso-propylcarbamoylbenzyl)-phenoxy]methylphosphonic acid] |  | > 2000 | 106 |  |
| Cc1cc(OCP(=O)(O)O)cc(C)c1Cc1ccc(O)c(C(=O)c2ccc(F)cc2)c1 [Compound 39, [3,5-dimethyl-4-[3′-(4-fluoro-benzoyl)-4′-hydroxy-benzyl]phenoxy]methylphosphonic acid] |  | > 2000 | 58 |  |
| Cc1cc(C(=O)CP(=O)(O)O)cc(C)c1Cc1ccc(O)c(Cc2ccccc2)c1 [Compound 41, [3,5-dimethyl-4-[3′-benzyl-4′-hydroxy-benzyl]benzoyl]methylphosphonic acid] |  | > 2000 | 181 |  |
| CC(C)c1cc(Cc2c(Cl)cc(C(=O)CP(=O)(O)O)cc2Cl)ccc1F [Compound 41-3, 2-[3,5-dichloro-4-(4-fluoro-iso-propyl-benzyl)-phenyl]-2-oxo-ethylphosphonic acid] |  | > 2000 | 280 |  |
| Cc1cc(OCP(=O)(O)O)cc(C)c1Sc1ccc(O)c(C(C)C)c1 [Compound 43, [3,5-dimethyl-4-S-[(4′-hydroxy-3′-iso-propylphenyl)sulfanyl]phenoxy]methylphosphonate] |  | 363 | 108 |  |
| Cc1cc(OCP(=O)(O)O)cc(C)c1Cc1ccc(O)c(S(=O)(=O)C(C)C)c1 [Compound 44, [3,5-dimethyl-4-[4′-hydroxy-3′-(iso-propylsulfonyl)benzyl]phenoxy]methylphosphonic acid] |  | 832 | 44 |  |
| Cc1cc(SCP(=O)(O)O)cc(C)c1Oc1ccc(O)c(C(C)C)c1 [Compound 54, [3,5-Dimethyl-4-(4′-hydroxy-3′-iso-propylphenoxy)benzenesulfanyl]methylphosphonic acid] |  |  |  | Ki ([1]; read-out: Ki TRα): 143 nM; Ki ([2]; read-out: Ki TRβ): 42 nM |

— US20090028925A1, “Novel Phosphinic Acid-Containing Thyromimetics” (priority 2005, published 2009)
